Source: patent US20110288036A1, “Methods for Treating or Preventing Vascular Graft Failure” (priority 2010, published 2011)

Key:
[1] = system: JNK; assay: JNK radiometric kinase assay; format: biochemical; conditions: peptide 100 μM
From the text: (§1) A commercial radiometric assay service was used to test the specificity and potency of MMI-0100 ([…]; SEQ ID NO: 1) by measuring its half maximal inhibitory concentrations (IC50). This quantitative assay measures how much MK2 inhibitor (MMI-0100; […] (SEQ ID NO: 1)) is needed to inhibit 50% of a given biological process or component of a process (i.e., an enzyme, cell, or cell receptor). Specifically, in these assays, a positively charged substrate is phosphorylated with a radiolabeled phosphate group from an ATP if the kinase is not inhibited by an inhibitor peptide. The positively charged substrate then is attracted to a negatively charged filter membrane, quantified with a scintillation counter, and compared to a 100% activity control. ATP concentrations within 15 μM of the apparent Km for ATP were chosen since an ATP concentration near the Km may allow for the kinases to have the same relative amount of phosphorylation activity. […]
For the JNK (c-Jun N-terminal Kinase) radiometric assay, 5-10 mU of JNK was incubated with 50 mM Tris pH 7.5, 0.1 mM EGTA, 0.1% b-mercaptoethanol, 3 μM ATF2 (a substrate for JNK), 10 mM MgAcetate, and 10 μM of [y-^33P-ATP] in the final reaction volume of 25 μl. […] The washed P30 filtermat was dried and its radioactivity was measured by scintillation counter.
(§2) IC50 values for inhibitor peptides were determined using Millipore's IC50 Profiler Express service. […]

[2] = system: P38MAPK; assay: p38 MAPK radiometric kinase assay; format: biochemical; conditions: peptide 100 μM
From the text: as §1, with “control.” for “control. ATP concentrations within 15 μM of the apparent Km for ATP were chosen since an ATP concentration near the Km may allow for the kinases to have the same relative amount of phosphorylation activity.”
For the p38 MAPK (p38 Mitogen-Activated Protein Kinase) radiometric assay, 5-10 mU of p38 MAPK was incubated with 25 mM Tris pH 7.5, 0.02 mM EGTA, 0.33 mg/mL myelin basic protein (a substrate for p38 MAPK), 10 mM MgAcetate, and 10 μM of [y-^33P-ATP] in the final reaction volume of 25 μl. […] The washed P30 filtermat was dried and its radioactivity was measured by scintillation counter.
as §2

[3] = system: human endothelial cell (EC); assay: Phase contrast morphology, endothelial cells; format: cell-based; conditions: 24 hours treatment, vs control cells
Experimental: In order to determine the effect of pharmacological doses of MMI-0100 ([…]; SEQ ID NO: 1) on human endothelial cell (EC) and smooth muscle cell (SMC) proliferation, human EC and SMC cultures were treated with three concentrations (0.25 mM, 0.5 mM, and 1 mM) of MMI-0100 ([…] (SEQ ID NO: 1)) following pre-treatment with TNF-α.

[4] = system: mouse lung endothelial cells (MLEC); assay: MCP-1 immunoassay of MLEC conditioned medium; format: cell-based; conditions: even at high doses
Experimental: Monocyte Chemotractic Protein-1 (MCP-1) production from mouse lung endothelial cells (MLEC) was analyzed using conditioned culture medium by Quantikine® Mouse CCL/JE/MCP-1 Immunoassay (R&D Systems) following the manufacturer's instructions. Briefly, the assay employs a quantitative sandwich enzyme immunoassay technique in which a monoclonal antibody specific for MCP-1 has been pre-coated onto a microplaste. Standards and samples are pipetted into the wells and any MCP-1 present is bound by the immobilized antibody. After washing away any unbound substances, an enzyme-linked polyclonal antibody specific for MCP-1 is added to the wells. Following a wash to remove any unbound antibody-enzyme reagent, a substrate solution is added to the wells and color develops in proportion to the amount of MCP-1 bound in the initial step. The color development is stopped and the intensity of the color is measured at 450 nm, with wavelength correction at 540 nm or 570 nm.

Sequence: YARAAARQARAKALARQLGVAA [MMI-0100]
- Percent Activity, JNK [1]: 92%
- Percent Activity, P38MAPK [2]: 60%
- morphological changes of EC [3]: no obvious morphological changes
- MCP-1 production [4]: did not stimulate MCP-1 production, even at high doses
